Assay results as given in patent publication US10730905B2, “Substituted heteropentadieno-pyrrolopyrimidine ribonucleosides for therapeutic use” (USTAV ORGANICKE CHEMIE A BIOCHEMIE AV CR, V.V.I., priority 2016, dated 2020).

How the values were obtained:
[1] = system: A549 (human lung adenocarcinoma); experiment: MTT cytotoxic test, A549; format: cell-based; conditions: A549 cells
Source text: (§1) MTT test (Nosková V. et al., Neoplasma 2002, 49, 418-425) was used for in vitro evaluation of antitumor activities of newly synthesized compounds on cell lines derived from normal tissues or tumors. Specifically, cell lines K562 (human acute myeloid leukemia); K562-Tax (human acute myeloid leukemia, paclitaxel resistant subline, overexpress multiple drug resistant protein PgP); CEM (T-lymfoblastic leukemia); CEM-DNR-bulk (T-lymfoblastic leukemia, doxorubicin resistant); A549 (human lung adenocarcinoma); HCT116p53 wt (human colorectal cancer, wild-type); HCT116p53−/− (human colorectal cancer, mutant p53) a U2OS (human bone osteosarcoma) were used. Express characteristics, susceptibility profiles of classic antitumor drugs as well as methodology of cytotoxic MTT test have been repeatedly published (Denizot, F.; Lang, R., J. Immunol. Meth. 1986, 89, 271-277; Noskova, V., see above; S̆arek J. et al., J, Med. Chem., 2003).

[2] = system: HCT116p53 wt (human colorectal cancer, wild-type); experiment: MTT cytotoxic test, HCT116; format: cell-based; conditions: HCT-116, HCT116 cells, p53 wild type
Source text: as §1

[3] = system: CCRF-CEM (CEM, T-lymfoblastic leukemia); experiment: MTT cytotoxic test, CCRF-CEM; format: cell-based; conditions: Homo sapiens, CCRF-CEM cells
Source text: as §1

[4] = system: K562-Tax (human acute myeloid leukemia, paclitaxel resistant subline); experiment: MTT cytotoxic test, K562-TAX; format: cell-based; conditions: K562-TAX cells
Source text: as §1

[5] = system: U2OS (human bone osteosarcoma); experiment: MTT cytotoxic test, U2OS; format: cell-based; conditions: U2OS cells
Source text: as §1

[6] = system: HCT116p53−/− (human colorectal cancer, mutant p53); experiment: MTT cytotoxic test, HCT116p53; format: cell-based; conditions: HCT116p53 cells (p53 −/−)
Source text: as §1

[7] = MTT cytotoxic test, MRC-5; format: cell-based; conditions: MRC-5 cells (normal fibroblasts), MRC-5 normal human fibroblasts
[8] = system: CEM-DNR-bulk (T-lymfoblastic leukemia, doxorubicin resistant); experiment: MTT cytotoxic test, CEM-DNR; format: cell-based; conditions: Homo sapiens, CEM-DNR cells
Source text: as §1

[9] = system: K562 (human acute myeloid leukemia); experiment: MTT cytotoxic test, K562; format: cell-based; conditions: K562 cells
Source text: as §1

| Compound | melting point | IC50 [1] | IC50 [2] | IC50 [3] | IC50 [4] | IC50 [5] | IC50 [6] | IC50 [7] | IC50 [8] | IC50 [9] |
| --- | --- | --- | --- | --- | --- | --- | --- | --- | --- | --- |
| Cc1ncnc2c1c1c(ccn1C)n2[C@@H]1O[C@H](CO)[C@@H](O)[C@H]1O [Compound 2a, 4,5-Dimethyl-8-(β-D-ribofuranosyl)-5,8-dihydropyrrolo[2′,3′:4,5]pyrrolo[2,3-d]pyrimidine] | 237 to 241 °C | – | 0.2 to 0.9 µM | 0.2 to 0.9 µM | 25 to 50 µM | 0.2 to 0.9 µM | 0.2 to 0.9 µM | 25 to 50 µM | 25 to 50 µM | 0.2 to 0.9 µM |
| OC[C@H]1O[C@@H](n2c3ccoc3c3c(-c4ccco4)ncnc32)[C@H](O)[C@@H]1O [Compound 1e, 4-(Furan-2-yl)-8-(β-D-ribofuranosyl)-8H-furo[2′,3′:4,5]pyrrolo[2,3-d]pyrimidine] | – | 25 to 50 µM | 25 to 50 µM | 0.2 to 0.9 µM | 0.9 to 10 µM | 0.9 to 10 µM | 25 to 50 µM | 25 to 50 µM | 25 to 50 µM | 0.9 to 10 µM |
| Cc1ncnc2c1c1occc1n2[C@@H]1O[C@H](CO)[C@@H](O)[C@H]1O [Compound 1a, 4-Methyl-8-(β-D-ribofuranosyl)-8H-furo[2′,3′:4,5]pyrrolo[2,3-d]pyrimidine] | – | 0.9 to 10 µM | 0.2 to 0.9 µM | 0.2 to 0.9 µM | 0.9 to 10 µM | 0.2 to 0.9 µM | 0.2 to 0.9 µM | 25 to 50 µM | 25 to 50 µM | 0.2 to 0.9 µM |
| CSc1ncnc2c1c1c(ccn1C)n2[C@@H]1O[C@H](CO)[C@@H](O)[C@H]1O [Compound 2c, 5-Methyl-4-(methylsulfanyl)-8-(β-D-ribofuranosyl)-5,8-dihydropyrrolo[2′,3′:4,5]pyrrolo-[2,3-d]-pyrimidine] | 212 to 214 °C | 25 to 50 µM | 0.2 to 0.9 µM | 0.2 to 0.9 µM | 25 to 50 µM | 0.9 to 10 µM | 0.2 to 0.9 µM | 25 to 50 µM | 25 to 50 µM | 0.2 to 0.9 µM |
| OC[C@H]1O[C@@H](n2c3ccoc3c3c(-c4ccoc4)ncnc32)[C@H](O)[C@@H]1O [Compound 1f, 4-(Furan-3-yl)-8-(β-D-ribofuranosyl)-8H-furo[2′,3′:4,5]pyrrolo[2,3-d]pyrimidine] | – | 25 to 50 µM | 10 to 25 µM | 0.2 to 0.9 µM | 0.9 to 10 µM | 0.2 to 0.9 µM | 10 to 25 µM | 25 to 50 µM | 25 to 50 µM | 0.2 to 0.9 µM |
| CN(C)c1ncnc2c1c1c(ccn1C)n2[C@@H]1O[C@H](CO)[C@@H](O)[C@H]1O [Compound 2h, N,N,5-trimethyl-8-(β-D-ribofuranosyl)-5,8-dihydropyrrolo[2′,3′:4,5]pyrrolo[2,3-d]pyrimidin-4-amine] | 99 to 106 °C | 25 to 50 µM | 25 to 50 µM | 25 to 50 µM | 25 to 50 µM | 25 to 50 µM | 25 to 50 µM | 25 to 50 µM | 25 to 50 µM | 25 to 50 µM |
| OC[C@H]1O[C@@H](n2c3ccoc3c3c(-c4cc5ccccc5o4)ncnc32)[C@H](O)[C@@H]1O [Compound 1g, 4-(Benzofuran-2-yl)-8-(β-D-ribofuranosyl)-8H-furo[2′,3′:4,5]pyrrolo[2,3-d]pyrimidine] | – | 25 to 50 µM | 25 to 50 µM | 10 to 25 µM | 10 to 25 µM | 25 to 50 µM | 25 to 50 µM | 25 to 50 µM | 25 to 50 µM | 25 to 50 µM |
| Cn1ccc2c1c1c(Cl)ncnc1n2[C@@H]1O[C@H](CO)[C@@H](O)[C@H]1O [Compound 2i, 4-chloro-5-methyl-8-(β-D-ribofuranosyl)-5,8-dihydropyrrolo[2′,3′:4,5]pyrrolo[2,3-d]pyrimidine] | 217 to 219 °C | 0.9 to 10 µM | 0.01 to 0.2 µM | 0.01 to 0.2 µM | 25 to 50 µM | 0.9 to 10 µM | 0.01 to 0.2 µM | 25 to 50 µM | 25 to 50 µM | 0.01 to 0.2 µM |

Further lines, with some results ahead:

| melting point | Compound | IC50 [1] | IC50 [2] | IC50 [3] | IC50 [4] | IC50 [5] | IC50 [6] | IC50 [7] | IC50 [8] | IC50 [9] |
| --- | --- | --- | --- | --- | --- | --- | --- | --- | --- | --- |
| 216 to 219 °C | COc1ncnc2c1c1occc1n2[C@@H]1O[C@H](CO)[C@@H](O)[C@H]1O [Compound 1b, 4-Methoxy-8-(β-D-ribofuranosyl)-8H-furo[2′,3′:4,5]pyrrolo[2,3-d]pyrimidine] | 0.9 to 10 µM | 0.2 to 0.9 µM | 0.01 to 0.2 µM | 0.2 to 0.9 µM | 0.2 to 0.9 µM | 0.2 to 0.9 µM | 10 to 25 µM | 0.9 to 10 µM | 0.2 to 0.9 µM |
| 202 to 207 °C | Cn1ccc2c1c1c(-c3ccoc3)ncnc1n2[C@@H]1O[C@H](CO)[C@@H](O)[C@H]1O [Compound 2f, 4-(Furan-3-yl)-5-methyl-8-(β-D-ribofuranosyl)-5,8dihydropyrrolo[2′,3′:4,5]pyrrolo[2,3-d]pyrimidine] | 25 to 50 µM | 25 to 50 µM | 25 to 50 µM | 25 to 50 µM | 0.9 to 10 µM | 0.9 to 10 µM | 25 to 50 µM | 25 to 50 µM | 0.9 to 10 µM |
| 246 to 253 °C | Nc1ncnc2c1c1occc1n2[C@@H]1O[C@H](CO)[C@@H](O)[C@H]1O [Compound 1d, 8-(β-D-ribofuranosyl)-8H-furo[2′,3′:4,5]pyrrolo[2,3-d]pyrimidin-4-amine] | 25 to 50 µM | 25 to 50 µM | 25 to 50 µM | 25 to 50 µM | 0.9 to 10 µM | 25 to 50 µM | 25 to 50 µM | 25 to 50 µM | 0.9 to 10 µM |
| 212 to 255 °C (dec.) | CN(C)c1ncnc2c1c1occc1n2[C@@H]1O[C@H](CO)[C@@H](O)[C@H]1O [Compound 1h, N,N-dimethyl-8-(β-D-ribofuranosyl)-8H-furo[2′,3′:4,5]pyrrolo[2,3-d]pyrimidin-4-amine] | 25 to 50 µM | 25 to 50 µM | 25 to 50 µM | 25 to 50 µM | 25 to 50 µM | 25 to 50 µM | 25 to 50 µM | 25 to 50 µM | 25 to 50 µM |
| 245 to 253 °C | Cn1ccc2c1c1c(-c3ccco3)ncnc1n2[C@@H]1O[C@H](CO)[C@@H](O)[C@H]1O [Compound 2e, 4-(Furan-2-yl)-5-methyl-8-(β-D-ribofuranosyl)-5,8-dihydropyrrolo[2′,3′:4,5]pyrrolo[2,3-d]pyrimidine] | 25 to 50 µM | 25 to 50 µM | 25 to 50 µM | 25 to 50 µM | 0.9 to 10 µM | 25 to 50 µM | 25 to 50 µM | 25 to 50 µM | 25 to 50 µM |
| 231 to 234 °C | COc1ncnc2c1c1c(ccn1C)n2[C@@H]1O[C@H](CO)[C@@H](O)[C@H]1O [Compound 2b, 4-Methoxy-5-methyl-8-(β-D-ribofuranosyl)-5,8-dihydropyrrolo[2′,3′:4,5]pyrrolo[2,3-d]pyrimidine] | 25 to 50 µM | 0.2 to 0.9 µM | 0.2 to 0.9 µM | 25 to 50 µM | 0.9 to 10 µM | 0.2 to 0.9 µM | 25 to 50 µM | 25 to 50 µM | 0.2 to 0.9 µM |
